Entries after “also recorded” stand apart in the source; their conditions may differ.
How the values were obtained:
[1] = system: L. donovani promastigotes; test: Anti-leishmanial screening against L. donovani promastigotes at a single concentration (MTT); type: cell-based, Leishmania donovani; conditions: for % Inhibition of L. donovani promastigotes / Activity against the promastigote parasite (in words): 100 μM; for % Inhibition of L. donovani promastigotes / inhibition at 100 µM: 72 h at 26 °C, MTT; for inhibition at 100 µM: Leishmania donovani, 72 h
Description: Each candidate was evaluated for its in vitro activity against reference strain (MHOM/IN/83/AG83) of extracellular promastigotes and intracellular amastigotes of L. donovani.
Promastigotes were routinely cultured at 26 °C in medium M199 supplemented with 10% heat inactivated fetal bovine serum (FBS, Gibco Laboratories, Mumbai, India), penicillin 100 (IU mL^−1), streptomycin (100 μg mL^−1). Log phase promastigotes were sub-cultured every 72–96 h, the inoculum being 2 × 10^6 cells per mL.[29]
The triazin hybrids series was evaluated for their antileishmanial ability against L. donovani promastigotes in vitro. Promastigotes of L. donovani (1× 10^6 cells per mL) in M199 medium were incubated at 26 °C for 72 h with each compound at a concentration of 100 μM. Miltefosine (MTF) was used as a reference drug, 0.2% DMSO as solvent control. Parasites with media alone were taken as control. Parasite viability was achieved by MTT assay after 72 h (Sharma et al. 2023).[30]

[2] = system: L. donovani promastigotes; test: Dose-dependent anti-promastigote activity and determination of IC50 (MTT); type: cell-based; conditions: Leishmania donovani, 72 h, 3 days at 26 °C
Description: MTF was used as a standard antileishmanial drug control. The cell viability was evaluated (by MTT Assay) and the mean percentage viability was calculated as follows: Mean cell number of treated parasites/mean cell number of untreated parasites × 100. The 50 and 90% inhibitory concentration (IC50) i.e., the concentration of drugs that decreased the cell growth by 50 and 90% respectively, was determined by graphical extrapolation after plotting the graph of percentage viability vs. concentration of the drug.[31]
Parasite viability was not affected by DMSO (0.2%, data not shown) used as solvent control.[33]

[3] = system: L. donovani amastigotes; test: Anti-amastigote assay in infected THP-1 macrophages (Giemsa); type: cell-based, Leishmania donovani
Description: To evaluate the anti-leishmanial effect of the compound T4 and T7 on intracellular L. donovani parasites, macrophage was infected with stationary -phase L. donovani for 6 h. The cells were then washed with saline to remove any non-internalised parasites. To assess the effect of compounds T4 and T7 on intracellular parasites at early stages of infection, macrophages were subsequently treated with T4 and T7 at concentrations of 100, 50, 25, 12.5, or 6.25 μM (refer to Table 3 and Fig. 7) for 6, 24, or 48 hours.
THP-1 cells (5 × 10^5 cells per mL) were cultivated in RPMI-1640 media (Roswell Park Memorial Institute 1640) (Sigma-Aldrich, USA), supplemented with 10% fetal calf serum and maintained at 37 °C with 5% CO2 using phorbol ester as the inducer. These cells were added on circular coverslips (1 × 10^6 cells per mL). Promastigotes of L. donovani were introduced at 1 : 20 ratio. Treatment of the samples was carried out at doses of 100, 50, 25, 12.5, 6.25 and 3.125 μM/72 h. After being taken off, the coverslips were stained with Giemsa. The rate of macrophage infection was then ascertained.

[4] = system: L. donovani promastigotes; test: Determination of promastigote cellular morphology (light microscopy); type: cell-based, Leishmania donovani; conditions: 25, 50 and 100 μM, 72 h, light microscopy 40×
Description: For the evident of morphological changes, the promastigotes (Fig. 3 (C to L)) were incubated in presence of compound T7, T4 and control Ampho B with the different concentration 25 μM, 50 μM, 100 μM shown in (Fig. 3C to L) were analysed by light microscopy (40×magnification) compared to untreated cells (Fig. 4A).
Fig. 4 Morphological Analysis of promastigote stage cells treated with compound T4 and MTF, compared to the untreated control (A) and DMSO treated control (B). Exponential-phase promastigotes (1 × 10^6 cells per mL) were incubated with 25 μm, 50 μm and 100 μm and analysed by light microscopy (40× magnification). (A) Untreated control (B) DMSO Treated cells (C–E) Ampho B, (F–H) T4 and T7 (I–K) at 25, 50, and 100 μM respectively. Scale bar in all is 10 μm.
Variations in the cellular morphology of Leishmania parasites due to the treatment with compounds T4 and T7 was detected microscopically. Briefly, the promastigotes (1× 10^6 cells per mL) were incubated in the absence or presence of test compounds and MTF and AmphoB for 72 h with different concentrations and observed under 40× objective of a phase-contrast microscope. […] Data were recorded by using NIS-Elements imaging software.[32]

[5] = system: Human macrophage THP-1 cell line; test: Cytotoxicity assay on THP-1 cell line (MTT); type: cell-based; conditions: 3.125–100 μM
Description: The cell lines were incubated for 48 h at 37 °C in a CO2 incubator with increasing concentrations of test compounds and viability was ascertained. Each point or bar corresponds to the mean ± SEM of triplicate samples and is representative of one of three independent experiments.
THP-1 human monocytic cells were grown at 37 °C in medium RPMI-1640 (pH 7.4, Sigma-Aldrich, St. Louis, MO, USA) supplemented with 10% heat-inactivated FBS for 48 to 72 h in a humidified atmosphere of 5% CO2 and sub-cultured in fresh RPMI-1640 medium at an average density 2 × 10^5 cells per mL (Sharma et al. 2023).[30]
Human macrophage THP-1 cell line of 0.5 × 10^6 cells per mL seeded in RPMI-1640 medium (Sigma-Aldrich, USA) supplemented with 10% FBS (GIBCO) in presence of 5% CO2 at 37 °C in triplicate in 96 well culture plate. The cells were treated with two-fold serially diluted concentrations (100–3.125 μM) of the candidate molecules for 72 h. The IC50 was calculated using MTT assay (Sharma et al. 2023).[30]

[6] = system: promastigote form of L. donovani; conditions: cited from earlier work

Row | Molecule | % Inhibition of L. donovani promastigotes [1] | inhibition at 100 µM [1] | melting point | Activity against the promastigote parasite (in words) [1] | other results
1 | CCOC(=O)c1cnc2ccc(C)cc2c1Sc1nnc(-c2ccccc2)c(-c2ccccc2)n1 [T3, Ethyl 4-((5,6-diphenyl-1,2,4-triazin-3-yl)thio)-6-methylquinoline-3-carboxylate] | 83.43% | < 90% | 210 to 212 °C | – | –
2 | O=[N+]([O-])c1ccc(N2CCN(c3cc(Sc4nnc(-c5ccccc5)c(-c5ccccc5)n4)ncn3)CC2)cc1 [T14, 123-((6-(4-(4-Nitrophenyl)piperazin-1-yl)pyrimidin-4-yl)thio)-5,6-diphenyl-1,2,4-triazine] | 22.76% | – | – | negligible activity; also recorded: minimal activity | –
3 | Fc1ccc(N2CCN(c3cc(Sc4nnc(-c5ccccc5)c(-c5ccccc5)n4)ncn3)CC2)cc1 [T15, 3-((6-(4-(4-Fluorophenyl)piperazin-1-yl)pyrimidin-4-yl)thio)-5,6-diphenyl-1,2,4-triazine] | – | 28.8% | – | negligible activity; also recorded: minimal activity | –
4 | CCN1CCN(c2cc(Sc3nnc(-c4ccccc4)c(-c4ccccc4)n3)ncn2)CC1 [T13, 113-((6-(4-Ethylpiperazin-1-yl)pyrimidin-4-yl)thio)-5,6-diphenyl-1,2,4-triazine] | 18.54% | – | – | negligible activity; also recorded: minimal activity | –
5 | CC1CCN(c2cc(Sc3nnc(-c4ccccc4)c(-c4ccccc4)n3)ncn2)CC1 [T7, 3-((6-(4-Methylpiperidin-1-yl)pyrimidin-4-yl)thio)-5,6-diphenyl-1,2,4-triazine] | 99.89% | > 90% | 250 to 252 °C | – | IC50 [2]: 1160 nM; Percentage reduction of parasites (amastigote) ([3]; 6.25 μM): 56%; Percentage reduction of parasites (amastigote) ([3]; 12.5 μM): 62%; Percentage reduction of parasites (amastigote) ([3]; 25 μM): 66%; Percentage reduction of parasites (amastigote) ([3]; 50 μM): 70.6%; Percentage reduction of parasites (amastigote) ([3]; 100 μM): 72%; Inhibitory activity against amastigotes (in words) ([3]; 100–6.25 μM, infected macrophages): good inhibitory activity; also recorded: capable of inhibiting the growth; Cellular morphological alterations in promastigotes (in words) [4]: loss of flagella
6 | Clc1ccc2c(Sc3nnc(-c4ccccc4)c(-c4ccccc4)n3)ccnc2c1 [T1, 7-Chloro-4-((5,6-diphenyl-1,2,4-triazin-3-yl)thio)quinoline] | 66.78% | – | 250 to 252 °C | – | –
7 | N#Cc1cccnc1N1CCN(c2cc(Sc3nnc(-c4ccccc4)c(-c4ccccc4)n3)ncn2)CC1 [T9, 2-(4-(6-((5,6-Diphenyl-1,2,4-triazin-3-yl)thio)pyrimidin-4-yl)piperazin-1-yl)nicotinonitrile] | – | 29.8% | 250 to 252 °C | negligible activity | –
8 | COc1ccccc1N1CCN(c2cc(Sc3nnc(-c4ccccc4)c(-c4ccccc4)n3)ncn2)CC1 [T12, 103-((6-(4-(2-methoxyphenyl)piperazin-1-yl)pyrimidin-4-yl)thio)-5,6-diphenyl-1,2,4-triazine] | 21.86% | – | – | negligible activity; also recorded: minimal activity | –
9 | c1ccc(-c2nnc(Sc3cc(N4CCOCC4)ncn3)nc2-c2ccccc2)cc1 [T6, 4-(6-((5,6-Diphenyl-1,2,4-triazin-3-yl)thio)pyrimidin-4-yl)morpholine] | – | 43.9% | 198 to 200 °C | negligible activity | –
10 | C[C@@H]1[C@H](O)[C@@H](C)/C=C/C=C/C=C/C=C/C=C/C=C/C=C/[C@H](O[C@@H]2O[C@H](C)[C@@H](O)[C@H](N)[C@@H]2O)C[C@@H]2O[C@](O)(C[C@@H](O)C[C@@H](O)[C@H](O)CC[C@@H](O)C[C@@H](O)CC(=O)O[C@H]1C)C[C@H](O)[C@H]2C(=O)O [Ampho B, Amphotericin B, reference compound] | – | – | – | – | IC50 [2]: 1040 nM; Percentage reduction of parasites (amastigote) ([3]; 6.25 μM): 74%; Percentage reduction of parasites (amastigote) ([3]; 12.5 μM): 76%; Percentage reduction of parasites (amastigote) ([3]; 25 μM): 79.44%; Percentage reduction of parasites (amastigote) ([3]; 50 μM): 82.5%; Percentage reduction of parasites (amastigote) ([3]; 100 μM): 84.2%
11 | O=C(CSc1nnc(-c2ccccc2)c(-c2ccccc2)n1)Nc1cc(=O)oc2ccccc12 [T5, 2-((5,6-Diphenyl-1,2,4-triazin-3-yl)thio)-N-(2-oxo-2H-chromen-4-yl)acetamide] | 67.93% | – | 200 to 202 °C | – | –
12 | Clc1ccc2c(N3CCN(c4cc(Sc5nnc(-c6ccccc6)c(-c6ccccc6)n5)ncn4)CC3)ccnc2c1 [T10, 7-Chloro-4-(4-(6-((5,6-diphenyl-1,2,4-triazin-3-yl)thio)pyrimidin-4-yl)piperazin-1-yl) quinoline] | – | 22.4% | 260 to 262 °C | negligible activity | –
13 | CCOC(=O)c1cnc2ccc(OC)cc2c1Sc1nnc(-c2ccccc2)c(-c2ccccc2)n1 [T2, Ethyl 4-((5,6-diphenyl-1,2,4-triazin-3-yl)thio)-6-methoxyquinoline-3-carboxylate] | 71.02% | < 90% | 200 to 202 °C | – | –
14 | Cc1cc(N2CCN(c3cc(Sc4nnc(-c5ccccc5)c(-c5ccccc5)n4)ncn3)CC2)n2ncnc2n1 [T11, 7-(4-(6-((5,6-Diphenyl-1,2,4-triazin-3-yl)thio)pyrimidin-4-yl)piperazin-1-yl)-5-methyl-[1,2,4]triazolo[1,5-a]pyrimidine] | – | 32.1% | 280 to 285 °C | negligible activity | –
15 | CCCCCCCCCCCCCCCCOP(=O)([O-])OCC[N+](C)(C)C [MTF, miltefosine, reference compound] | – | – | – | – | IC50 [2]: 1480 nM; Percentage reduction of parasites (amastigote) ([3]; 6.25 μM): 68%; Percentage reduction of parasites (amastigote) ([3]; 12.5 μM): 72%; Percentage reduction of parasites (amastigote) ([3]; 25 μM): 73%; Percentage reduction of parasites (amastigote) ([3]; 50 μM): 74%; Percentage reduction of parasites (amastigote) ([3]; 100 μM): 76%; Cytotoxicity on THP-1 human macrophages (in words) [5]: some cytotoxicity; Cytotoxicity on THP-1 human macrophages (in words) ([5]; listed as Miltefosine): nontoxic
16 | c1ccc(-c2nnc(Sc3cc(N4CCCCC4)ncn3)nc2-c2ccccc2)cc1 [T8, 5,6-Diphenyl-3-((6-(piperidin-1-yl)pyrimidin-4-yl)thio)-1,2,4-triazine] | – | 73.7% | – | negligible activity | –
17 | 1,2,4-triazino[5,6-b]indol-3-ylthio-1,3,5-triazine [1 (Fig. 2)] | – | – | – | – | fold more selectivity in comparison to pentamidine [6]: 20 fold; fold more selectivity in comparison to sodium stibogluconate [6]: 10 fold; inhibition against promastigote form of L. donovani [6]: more than 90%; selectivity (S.I.) [6]: 56.61

Source: PMC11253633, “Robust leishmanicidal upshot of some new diphenyl triazine-based molecules” (RSC Advances, 2024)
